Source: US8063218B2, “Imidazopyridine inhibitors of IAP” (Genentech, Inc., priority 2006, dated 2011)

Biological target: T1, MLXBIR3SG (Homo sapiens, UniProt Q96CA5, S150G)
T1 sequence (Q96CA5 with tags, fused parts or gaps S150G limits assumed): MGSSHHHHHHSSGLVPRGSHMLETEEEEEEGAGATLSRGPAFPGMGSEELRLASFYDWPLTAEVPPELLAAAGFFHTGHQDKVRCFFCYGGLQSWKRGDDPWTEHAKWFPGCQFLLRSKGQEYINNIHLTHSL
Assay: Fluorescence Polarization Peptide Binding Assay (competition with AVP-diPhe-FAM probe)
Conditions: competition: MLXBIR3SG at 30 nM, 5 nM AVP-diPhe-FAM probe; Ki determined from the IC50 values
Method: In the following experiments was used a chimeric BIR domain referred to as MLXBIR3SG in which 11 of 110 residues correspond to those found in XIAP-BIR3, while the remainder correspond to ML-IAP-BIR. […] The improved caspase-9 inhibition of the chimeric BIR domain MLXBIR3SG has been correlated with increased inhibition of doxorubicin-induced apoptosis when transfected into MCF7 cells. MLXBIR3SG sequence:
Fluorescence Polarization Peptide Binding Assay
Polarization experiments were performed on an Analyst HT 96-384 (Molecular Devices Corp.) according to the procedure of Keating, S. M., Marsters, J, Beresini, M., Ladner, C., Zioncheck, K., Clark, K., Arellano, F., and Bodary., S. (2000) in Proceedings of SPIE: In Vitro Diagnostic Instrumentation (Cohn, G. E., Ed.) pp 128-137, Bellingham, Wash. Samples for fluorescence polarization affinity measurements were prepared by addition of 1:2 serial dilutions starting at a final concentration of 5 μM of MLXBIR3SG in polarization buffer (50 mM Tris [pH 7.2], 120 mM NaCl, 1% bovine globulins 5 mM DTT and 0.05% octylglucoside) to 5-carboxyflourescein-conjugated AVPdi-Phe-NH2 (AVP-diPhe-FAM) at 5 nM final concentration.
The reactions were read after an incubation time of 10 minutes at room temperature with standard cut-off filters for the fluorescein fluorophore (λex=485 nm; λem=530 nm) in 96-well black HE96 plates (Molecular Devices Corp.). Fluorescence values were plotted as a function of the protein concentration, and the IC50s were obtained by fitting the data to a 4-parameter equation using Kaleidograph software (Synergy software, Reading, Pa.). Competition experiments were performed by addition of the MLXBIR3SG at 30 nM to wells containing 5 nM of the AVP-diPhe-FAM probe as well as 1:3 serial dilutions of antagonist compounds starting at a concentration of 300 μM in the polarization buffer. Samples were read after a 10-minute incubation. Fluorescence polarization values were plotted as a function of the antagonist concentration, and the IC50 values were obtained by fitting the data to a 4-parameter equation using Kaleidograph software (Synergy software, Reading, Pa.). Inhibition constants (Ki) for the antagonists were determined from the IC50 values.

| Ki | Structure (SMILES) |
| --- | --- |
| 2.31 µM | CN[C@@H](C)C(=O)N[C@H](C(=O)N1CCC[C@H]1c1cn2cccc(-c3ccc([N+](=O)[O-])cc3)c2n1)C1CCOCC1 [Compound 8] |
| 1.83 µM | CN[C@@H](C)C(=O)N[C@H](C(=O)N1CCC[C@H]1c1cn2cccc(-c3cccc4ccccc34)c2n1)C1CCOCC1 [Compound 20] |
| 18.9 µM | CN[C@@H](C)C(=O)N[C@H](C(=O)N1CCC[C@H]1c1cn2cccc(-c3ccc(N(C)C)cc3)c2n1)C1CCOCC1 [Compound 7] |
| 0.0891 µM | CN[C@@H](C)C(=O)N[C@H](C(=O)N1CCC[C@H]1c1cn2c(-c3ccccc3)cccc2n1)C1CCOCC1 [Compound 1] |
